In patent publication US20250296938A1, “Compounds that Interact with the Ras Superfamily for the Treatment of Cancers, Inflammatory Diseases, Rasopathies, and Fibrotic Disease” (SHY Therapeutics, LLC, priority 2018, published 2025):

Experiments:
[1] = system: TNF-α; assay: Mouse TNF alpha quantification assay, LPS-stimulated RAW 264.7 macrophages; assay type: cell-based; settings: for inhibition at 10 µM: RAW264.7, 10 μM, LPS (100 ng/ml) added concurrently, 5 hours, RAW 264.7, read-out: TNFα % Inhibition; for inhibition at 30 µM: RAW264.7, 30 μM, LPS-stimulated RAW 264.7 macrophages
Summary of the method: (§1)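 RAW 264.7 cells, serum-starved overnight (0.5% FBS), were pretreated with compounds at 30 μM (0.3% DMSO) for 3 h, then stimulated with LPS 100 ng/ml for 16 h at 37 °C; alternatively, 10 μM compound was added together with LPS for 5 h. Secreted TNF-α and IL-6 were quantified in supernatants by sandwich ELISA.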

[2] = system: IL-6; assay: Mouse IL6 quantification assay, LPS-stimulated RAW 264.7 macrophages; assay type: cell-based; settings: for inhibition at 10 µM: RAW264.7, 10 μM, LPS (100 ng/ml) added concurrently, 5 hours, RAW 264.7; for inhibition at 30 µM: RAW264.7, 30 μM, LPS-stimulated RAW 264.7 macrophages
Summary of the method: as §1

| Structure (SMILES) | inhibition at 10 µM [1] | inhibition at 10 µM [2] | inhibition at 30 µM [1] | inhibition at 30 µM [2] |
| --- | --- | --- | --- | --- |
| Cn1ccc(-c2sc3nc(-c4nccn4C)nc(O)c3c2-c2ccccc2)n1 [drawing 769] | 1 to 25% | 51 to 75% |  |  |
| CO[C@H]1C[C@@H](Nc2nc(-c3nccn3C)nc3sc(-c4cnn(C)c4)c(-c4ccccc4)c23)C1 [drawing 757] | 1 to 25% | 51 to 75% |  |  |
| Oc1nc(-c2ncc3ccccn23)nc2c(-c3ccccn3)csc12 [drawing 673] |  |  | 76 to 100% | 76 to 100% |
| COC1CCC(Nc2nc(-c3nccn3C)nc3sc(-c4cccc(O)c4F)c(-c4ccccc4)c23)C1 (centres unmarked) [drawing 750] | 0% | 0% |  |  |
| CO[C@H]1CC[C@@H](Nc2nc(-c3nccn3C)nc3sc(-c4cccc5[nH]ncc45)c(-c4ccccc4)c23)C1 [drawing 754] | 76 to 100% | 76 to 100% |  |  |
| COc1c(F)cccc1-c1sc2nc(-c3nccn3C)nc(N[C@@H]3CC[C@H](OC)C3)c2c1-c1ccccc1 [drawing 752] | 0% | 0% |  |  |
| COC1CCN(c2nc(-c3nccn3C)nc3sc(-c4cccc(O)c4F)c(-c4ccccc4)c23)C1 (centres unmarked) [drawing 755] | 1 to 25% | 26 to 50% |  |  |
| COc1c(F)cccc1-c1sc2nc(-c3nccn3C)nc(NC3CCC(OC)C3)c2c1-c1ccccc1 (centres unmarked) [drawing 751] | 0% | 1 to 25% |  |  |
| COCCNC(=O)c1sc2nc(-c3nccn3C)nc(N[C@H]3C[C@@H](OC)C3)c2c1-c1ccccc1 [drawing 786] | 0% | 26 to 50% |  |  |
| COc1c(O)nc(-c2ccccn2)nc1Oc1ccc2ncccc2c1 [drawing 721] |  |  | 1 to 25% | 76 to 100% |
| CO[C@H]1CC[C@@H](Nc2nc(-c3nc(C)cn3C)nc3sc(-c4cccc5[nH]ncc45)c(C)c23)C1 [drawing 762] | 26 to 50% | 76 to 100% |  |  |
| COc1cc(-c2sc3nc(-c4nccn4C)nc(N4CCC(OC)C4)c3c2-c2ccccc2)ccn1 (centres unmarked) [drawing 702] |  |  | 76 to 100% | 76 to 100% |
| Cn1ccnc1-c1nc(O)c(O)c(C(=O)NC2CCC2)n1 [drawing 742] |  |  | 1 to 25% | 0% |
| COc1ccc(-c2sc3nc(-c4nccn4C)nc(N4CCC(OC)C4)c3c2-c2ccccc2)cn1 (centres unmarked) [drawing 705] |  |  | 76 to 100% | 76 to 100% |
| COCCn1cc(-c2sc3nc(-c4nccn4C)nc(N4CCC(OC)C4)c3c2-c2ccccc2)cn1 (centres unmarked) [drawing 708] |  |  | 76 to 100% | 76 to 100% |
| O=C(NC1CCC1)c1nc(-c2ccccn2)nc(O)c1O [drawing 736] |  |  | 1 to 25% | 76 to 100% |
| COc1nc(-c2ccccn2)nc2c(-c3ccccn3)csc12 [drawing 778] | 1 to 25% | 51 to 75% |  |  |
| CO[C@H]1CC[C@@H](Nc2nc(-c3nccn3C)nc3sc(C(=O)N4CCOCC4)c(-c4ccccc4)c23)C1 [drawing 792] | 1 to 25% | 26 to 50% |  |  |
| CO[C@H]1CC[C@@H](Nc2nc(-c3nccn3C)nc3sc(C(=O)NC(C)C)c(-c4ccccc4)c23)C1 [drawing 789] | 1 to 25% | 51 to 75% |  |  |
| COCCc1ccc(Oc2nc(-c3ccccn3)nc(O)c2OC)cc1 [drawing 725] |  |  | 1 to 25% | 76 to 100% |
| CCOc1cccc(Nc2nc(-c3ccccn3)nc(O)c2OC)c1 [drawing 747] | 1 to 25% | 51 to 75% |  |  |
| CC(C)CNC(=O)c1nc(-c2ccccn2)nc(O)c1O [drawing 734] |  |  | 26 to 50% | 76 to 100% |
| CO[C@H]1C[C@@H](Nc2nc(-c3nccn3C)nc3sc(C(=O)NC(C)C)c(-c4ccccc4)c23)C1 [drawing 785] | 0% | 1 to 25% |  |  |
| Oc1nc(-c2cn(-c3ccccc3)cn2)nc2c(-c3ccccn3)csc12 [drawing 675] |  |  | 0% | 76 to 100% |
| CC(C)COc1ccc(-c2csc3c(O)nc(-c4nccn4Cc4ccccn4)nc23)cn1 [drawing 764] | 1 to 25% | 76 to 100% |  |  |
